Test results published in patent publication US20220340908A1, “METHODS FOR DEPLETION OF DELETERIOUS MITOCHONDRIAL GENOMES” (University of Massachusetts, priority 2019, published 2022).
Residues, ends and D or L forms follow the SMILES beside them. *: point of attachment. Cbz = O=C(OCc1ccccc1)*

Columns and labels:
CoxI G6930A cells [1] = experiment: Respiration assay, oxygen consumption rate (Seahorse), CoxI G6930A cells; format: cell-based, human
Method: (§1) For mitochondrial respiration assays, oxygen consumption rate (OCR) was measured using a Seahorse Extracellular Flux Analyzer XFe96 (Seahorse Biosciences) as described (40). 14,000 cells were seeded per well and OCR was measured using the Cell MitoStress Kit (as described by the manufacture). 180 μl of XF-Media was added to each well and then the plates were subjected to analysis following sequential introduction of 1.5 μM oligomycin, 1.5 μM FCCP and 0.5 μM rotenone/antimycin as indicated. Data is normalized to total protein as determined by the BCA protein assay.

[2] = 20 mg for 56 consecutive days; cited from earlier work
KSS ΔmtDNA cells = experiment: Cell viability (trypan blue), KSS cells; format: cell-based, human; settings: 0.1 μM and 0.25 μM CDDO, 72 hours
Method: (§2) The KSS cell line was a gift from Carlos Moraes (29, 30). The CoxI […] cell line was a gift from Giovanni Manfredi (28). Cells were cultured in DMEM (4 mM L-glutamine, 4.5 g/L glucose; Gibco, Thermo Fisher Scientific) plus 10% FBS with 1% pen-strep. Total cellular mtDNA was prepared as described (40). Cells were incubated continuously in the described concentration of CDDO for the indicated number of days. The cells were sub-cultured prior to confluence every 48 hours.
(§3) At the indicated time points, cells were stained with trypan blue (41) and quantified with an automated cell counter TC-20™ (Bio-Rad). The results are an average of three independent assays.

CoxI G6930A cells [3] = experiment: Cell viability (trypan blue), CoxI G6930A cells; format: cell-based, human; settings: 0.1 μM and 0.25 μM CDDO, 72 hours
Method: as §2, §3

KSS cybrid cells = experiment: KSS ΔmtDNA quantification by qPCR in KSS heteroplasmic cybrid cells; format: cell-based, human; settings: for KSS ΔmtDNA percentage: 4 weeks, from ˜50%
Method: For human patient fibroblast cell lines, wild-type and ΔKSS primers were used to detect wild-type mtDNA or ΔKSS mtDNA. Primers that amplify a sequence within the B2M ([…]) gene were used as an internal control for normalization. Absolute quantification was also performed to determine the percentage or ratio of KSS ΔmtDNA relative to total mtDNA (KSS ΔmtDNA and wild-type mtDNA) as previously described (11). Primers that specifically amplify wild-type or ΔmtDNA are listed in Table A. Standard curves for each qPCR primer set were generated using purified plasmids individually containing approximately 1 kb of the mtDNA fragments specific for each primer set. A Student's t-test was employed to determine the level of statistical significance.
as §2
Cells were grown on 6-well plates and siRNAs were transfected with Lipofectamine RNAiMAX (Thermo Fisher Scientific) following the manufacturer's instructions. Human LONP1 RNAi was used in knockdown experiment (Dharmacon L-003979-00-0005) (e.g., a pool comprising GGAAAUCGGCCUACAAGAU (SEQ ID NO:1), GCGCAUGUAUGACGUGACA (SEQ ID NO:2), CGAGAGUACUUCCGCUUCA (SEQ ID NO:3), and GAAGAGACCAAUAUUCCUA (SEQ ID NO:4)).
ATF5 shRNA knockdown lentiviral constructs were generated using psp-108 vector (Addgene), and viruses were produced by co-transfection along with plasmids pMD2.G (Addgene) and psPAX2 (Addgene) into HEK293T cells. All viral titers were predetermined, and same number of viral particles was used for experimental and control samples. KSS cells were infected with lentiviruses, selected with puromycin for 5-7 days, and re-plated for proliferation. ATFS knockdown targeting sequences are: shRNA-1, 5′-[…]-3′ (SEQ ID NO:5); shRNA-2, 5′-[…]-3′ (SEQ ID NO:6); shRNA-3, 5′-[…]-3′ (SEQ ID NO:7); see horizondiscovery.com/en/products/gene-modulation/knockdown-reagents/shrna/PIFs/TRC-Lentiviral-shRNA?nodeid=entrezgene-22809#specifications.

KSS heteroplasmic cells = experiment: Respiration assay, oxygen consumption rate (Seahorse), KSS cells; format: cell-based, human; settings: 0.1 μM or 0.25 μM, 4 weeks
Method: as §1

CoxI G6930A cybrid cells = experiment: Percentage of CoxI G6930A mtDNA by deep sequencing in cybrid cells; format: cell-based, human; settings: for CoxI G6930A mtDNA percentage: 3 weeks, from 86%; for CoxI G6930A mtDNA heteroplasmic ratio: 18.5 weeks continuous, from ˜90%
Method: Library construction for deep sequencing was modified from our previous report (7). Following CDDO treatment, cells were harvested at different time points and genomic DNA extracted. Briefly, regions flanking the CoxI […] site were PCR amplified using locus-specific primers bearing tails complementary to the Truseq adapters as described previously (38). 50-100 ng input genomic DNA (mtDNA included) was PCR amplified with Phusion High Fidelity DNA Polymerase (New England Biolabs):(98° C., 15 s; 67° C. 25 s; 72° C. 18 s)×30 cycles. 1 μl of each PCR reaction was amplified with barcoded primers to reconstitute the TruSeq adaptors using the Phusion High Fidelity DNA Polymerase (New England Biolabs): (98° C., 15 s; 61° C., 25 s; 72° C., 18 s)×9 cycles. Equal amounts of the products were pooled and gel purified. The purified library was deep sequenced using a paired-end 150 bp Illumina MiSeq run.
MiSeq data analysis for editing at target sites or off-target sites was performed using a suite of Unix-based-software tools. First, the quality of the paired-end sequencing reads (R1 and R2 fastq files) was assessed using FastQC (bioinformatics.babraham.ac.uk/projects/fastqc/). Raw paired-end reads were combined using paired end read merger (PEAR) (39) to generate single merged high-quality full-length reads. Reads were then filtered by quality (using Filter FASTQC (38)) to remove those with a mean PHRED quality score under 30 and a minimum per base score under 24. Each group of reads was then aligned to a corresponding reference sequence using BWA (version 0.7.5) and SAMtools (version 0.1.19). To determine background SNP or sequencing errors, all reads from each negative control replicate were combined and aligned, as described above. Background SNP types and frequencies were then cataloged in a text output format at each base using bam-readcount (github.com/genome/bam-readcount). For each drug treatment group, the average background SNP frequencies (based on SNP type, position and frequency) of the triplicate negative control group were subtracted to obtain the accurate SNP frequencies.
as §2

LONP1 protease = target: T1, LONP1 protease (Homo sapiens, UniProt P36776); settings: cited from earlier work
T1 sequence (P36776 68-959): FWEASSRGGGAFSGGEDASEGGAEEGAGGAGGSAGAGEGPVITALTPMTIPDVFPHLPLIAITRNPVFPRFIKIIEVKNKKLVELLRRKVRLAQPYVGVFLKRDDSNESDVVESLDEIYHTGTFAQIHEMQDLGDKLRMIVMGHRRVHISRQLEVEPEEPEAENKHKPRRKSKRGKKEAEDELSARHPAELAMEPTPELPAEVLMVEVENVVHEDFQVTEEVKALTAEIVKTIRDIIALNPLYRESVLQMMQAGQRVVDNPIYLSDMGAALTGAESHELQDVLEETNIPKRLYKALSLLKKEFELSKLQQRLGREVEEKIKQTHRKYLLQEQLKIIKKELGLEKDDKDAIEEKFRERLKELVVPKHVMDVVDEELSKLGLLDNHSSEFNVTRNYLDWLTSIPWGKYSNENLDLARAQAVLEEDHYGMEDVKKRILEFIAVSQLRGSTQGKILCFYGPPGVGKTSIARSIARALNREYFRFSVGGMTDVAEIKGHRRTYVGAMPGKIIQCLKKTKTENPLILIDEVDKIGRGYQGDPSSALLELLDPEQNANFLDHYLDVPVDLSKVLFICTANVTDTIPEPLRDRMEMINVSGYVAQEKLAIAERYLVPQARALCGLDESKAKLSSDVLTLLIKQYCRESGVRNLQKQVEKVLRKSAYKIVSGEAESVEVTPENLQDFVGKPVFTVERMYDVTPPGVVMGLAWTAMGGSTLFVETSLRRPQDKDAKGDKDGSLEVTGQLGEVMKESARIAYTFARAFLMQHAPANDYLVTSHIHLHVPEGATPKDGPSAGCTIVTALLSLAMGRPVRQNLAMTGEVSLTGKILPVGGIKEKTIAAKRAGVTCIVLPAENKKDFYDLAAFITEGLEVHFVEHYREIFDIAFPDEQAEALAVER

For `CC1(C)CC[C@]2(C(=O)O)CC[C@]3(C)[C@H](C(=O)C=C4[C@@]5(C)C=C(C#N)C(=O)C(C)(C)[C@@H]5CC[C@]43C)[C@@H]2C1` [CDDO, 2-cyano-3,12-dioxo-oleana-1,9(11)-dien-28-oic acid], the “improvement of basal oxygen consumption” value (CoxI G6930A cells [1]; 0.1 μM, 3 weeks) was ~2 fold, the “improvement of basal oxygen consumption” value (CoxI G6930A cells [1]; 18.5 weeks exposure) was “over 3 fold” and the maximal respiratory capacity (CoxI G6930A cells [1]; CDDO time course, 0.1 μM or 0.25 μM) was “increased”. For the same molecule, the tolerability [2] was “well tolerated”, the “viability of KSS cell line” value (KSS ΔmtDNA cells) was “neither concentration affected viability” and the “viability of CoxI G6930A cell line” value (CoxI G6930A cells [3]) was “neither concentration affected viability”. For the same molecule, the “KSS ΔmtDNA percentage” value (KSS cybrid cells; 0.1 μM) was 19.6%, the “KSS ΔmtDNA percentage” value (KSS cybrid cells; 0.25 μM) was 21.2% and the “increase in basal oxygen consumption” value (KSS heteroplasmic cells) was ~2 fold. For the same molecule, the “CoxI G6930A mtDNA percentage” value (CoxI G6930A cybrid cells; 0.1 μM) was 68%, the “CoxI G6930A mtDNA heteroplasmic ratio” value (CoxI G6930A cybrid cells; 0.1 μM) was ~47% and the “CoxI G6930A mtDNA percentage” value (CoxI G6930A cybrid cells; 0.25 μM) was 72%. The “CoxI G6930A mtDNA heteroplasmic ratio” value (CoxI G6930A cybrid cells; 0.25 μM) was 62%.

For `CC(C)C[C@@H](C=O)NC(=O)[C@H](CC(C)C)NC(=O)[C@H](CC(C)C)NC(=O)OCc1ccccc1` [MG132, carbobenzoxy-Leu-Leu-leucinal] (Cbz-Leu-Leu-Leu-aldehyde), the “inhibition of LONP1 protease” value (LONP1 protease) is listed as “potent inhibitors”.

In the case of `C=C1OC(=O)/C(=C\CCCCCCCCCCCCC)[C@@H]1O` [Obtusilactone A], the “inhibition of LONP1 protease” value (LONP1 protease) is listed as “inhibitors of LONP1 protease”.

For `O=c1n(CCCN2CCN(c3cccc(Cl)c3)CC2)nc2ccccn12` [Trazadone], the “heteroplasmy (ΔmtDNA) in KSS cells” value (KSS cybrid cells; shRNA lentivirus or multiple concentrations of drug, FIG. 11) was “improved heteroplasmy”.

In the case of (-)-sesamin, the “inhibition of LONP1 protease” value (LONP1 protease) is given as “inhibitors of LONP1 protease”.

For Z-Leu-Leu-Leu-B(OH)2 [MG262], the “inhibition of LONP1 protease” value (LONP1 protease) is given as “potent inhibitors”.

B1: LONP1 siRNA: Dharmacon L-003979-00-0005, siRNA pool comprising SEQ ID NO:1-4 against human LONP1 (nucleic acid)
chain 1: GGAAAUCGGCCUACAAGAU
chain 2: GCGCAUGUAUGACGUGACA
chain 3: CGAGAGUACUUCCGCUUCA
chain 4: GAAGAGACCAAUAUUCCUA
modifications: siRNA pool, further chemistry not given here
For B1, the “decrease of ΔmtDNAs” value (KSS cybrid cells; siRNA for 4 days, KSS cybrid line) was 2.7 fold and the “heteroplasmy ratio (% KSS mtDNA)” value (KSS cybrid cells; siRNA for 4 days, from 56.9%) was 27.6%.
